Measured values: patent US7642261B2, “Use of 1-[4-(5-cyanoindol-3-yl)butyl]-4-(2-carbamoyl-benzofuran-5-yl)-piperazine and its physiologically acceptable salts” (Merck Patent GmbH, priority 2002, dated 2010)

Each molecule was assayed on mice (assay: Marble Burying Test (model for OCSD including OCD)). Details: dose equieffective to 3 mg/kg of the hydrochloride (92% inhibition).
Type: in vivo
Experimental: A typical model for OCSD including OCD is the Marble Burying Test according to Y. Ichimaru, T. Egawa, A. Sawa, Jpn. J. Pharmacol. 1995, 68: 65-70.
The apparatus consists of an open cubic box with 25 clean glass marbles evenly spaced on sawdust. Individual mice are placed in the test box, and the number of glass marbles left uncovered after 20 minutes are counted. 1-[4-(5-cyanoindol-3-yl)butyl]-4-(2-carbamoyl-benzofuran-5-yl)-piperazine or one of its physiologically acceptable salts, in particular 1-[4-(5-cyanoindol-3-yl)butyl]-4-(2-carbamoyl-benzofuran-5-yl)-piperazine hydrochloride, following subcutaneous application inhibits mable burying in mice dose-dependently. For example, a dose of 3 mg/kg of 1-[4-(5-cyanoindol-3-yl)butyl]-4-(2-carbamoyl-benzofuran-5-yl)-piperazine hydrochloride nearly completely (92%) inhibits marble burying; equieffective doses of conventional serotonin reuptake inhibitors are e.g. 20 mg/kg for fluvoxamine or 17 mg/kg for fluoxetine and an equieffective dose of the 5-HT1A agonist ipsapirone is 10 mg/kg.

Compound	equieffective dose for inhibition of marble burying [mg/kg]
CNCCC(Oc1ccc(C(F)(F)F)cc1)c1ccccc1 (stereo not drawn) [fluoxetine]	17
COCCCC/C(=N\OCCN)c1ccc(C(F)(F)F)cc1 [fluvoxamine]	20
O=C1c2ccccc2S(=O)(=O)N1CCCCN1CCN(c2ncccn2)CC1 [ipsapirone]	10
